Measured values from patent US20160137639A1, “TRIAZOLE-ISOXAZOLE COMPOUND AND MEDICAL USE THEREOF” (JAPAN TOBACCO INC., priority 2012, published 2016).
Read-outs that look alike come from different tables or passages of the source.

Tests used:
mouse RORγ = target: T1, mouse RORγ (Mus musculus, UniProt P51450); test: Luciferase reporter gene assay of inhibitory effect against RORγ transcriptional activity (GAL4-mRORγ plasmid in CHO cells); type: cell-based
T1 construct: mouse, NM_011281.2 and from Ile251 to Lys516; expressed in transfected cells; host or cells: CHO cells (transient co-transfection with pG5-Luc reporter)
T1 sequence (P51450 251-516): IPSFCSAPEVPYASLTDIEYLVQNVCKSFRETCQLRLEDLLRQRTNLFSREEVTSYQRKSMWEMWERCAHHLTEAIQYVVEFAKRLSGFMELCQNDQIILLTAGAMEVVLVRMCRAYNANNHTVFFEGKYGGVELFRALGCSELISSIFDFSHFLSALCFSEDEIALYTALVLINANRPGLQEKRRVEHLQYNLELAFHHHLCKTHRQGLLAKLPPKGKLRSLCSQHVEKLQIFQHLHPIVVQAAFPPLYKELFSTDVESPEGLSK
Outline: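 CHO cells transiently co-transfected with GAL4-mouse RORγ LBD (Ile251–Lys516) and GAL4-dependent luciferase reporter; eight compound concentrations, 0.1% DMSO, 2 days at 37 °C. Luminescence as %-of-vehicle control; EC50 by curve fit, cytotoxic concentrations excluded.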

human RORγ = target: T2, human RORγ (Homo sapiens, UniProt P51449); test: Luciferase reporter gene assay of inhibitory effect against RORγ transcriptional activity (GAL4-hRORγ plasmid in CHO cells); type: cell-based
T2 construct: human, NM_005060.3 and from Ser253 to Lys518; expressed in transfected cells; host or cells: CHO cells (transient co-transfection with pG5-Luc reporter)
T2 sequence (P51449 253-518): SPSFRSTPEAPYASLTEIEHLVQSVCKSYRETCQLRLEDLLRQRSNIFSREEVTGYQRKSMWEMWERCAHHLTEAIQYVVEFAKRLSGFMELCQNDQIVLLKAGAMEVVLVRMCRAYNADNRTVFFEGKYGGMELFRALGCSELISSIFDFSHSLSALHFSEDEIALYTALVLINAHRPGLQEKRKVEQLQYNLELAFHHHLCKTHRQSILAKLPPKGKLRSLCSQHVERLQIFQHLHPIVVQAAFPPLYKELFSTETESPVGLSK

Row | SMILES | EC50 (mouse RORγ; read-out: LUC EC50 (μM) mRORg) [µM] | EC50 (human RORγ; read-out: LUC EC50 (μM) hRORg) [µM] | EC50 (mouse RORγ; read-out: LUC EC50 mRORg) [µM] | EC50 (human RORγ; read-out: LUC EC50 hRORg) [µM]
1 | Cc1ccc(NC(=O)C[C@@H](Cc2nccs2)c2nnc([C@H]3C[C@@H](CC(C)C)C3)n2C2CC2)c(C)c1 [Example F-476] | < 3 | < 3 | – | –
2 | Cc1ccc(NC(=O)C[C@H](CCC(=O)O)c2noc(-c3cc(C4CC(C)(C)C4)on3)c2C2CC2)c(Cl)c1 [Example E-30] | < 3 | < 3 | – | –
3 | COc1cc(C)ccc1CNC(=O)CCc1nnc(CCC2CCC(F)(F)CC2)n1C1CC1 [Example F-257] | < 3 | < 3 | – | –
4 | COc1cc(C)ccc1CNC(=O)CCc1nnc(CC[C@H]2CC[C@H](C(F)(F)F)CC2)n1C1CC1 [Example F-251] | < 3 | < 3 | – | –
5 | Cc1ccc(NC(=O)CC(CC(=O)N2CC[C@@H](O)C2)c2nnc([C@H]3C[C@@H](CC(C)C)C3)n2C2CC2)c(C)c1 (mixture of isomers) [Example F-502] | – | – | > 3 | > 3
6 | C=CCCCCc1onc(CCC(=O)Nc2cccc(C=C)c2)c1C1CC1 [Example F-738] | – | – | > 3 | > 3
7 | C#CCC(CC(=O)Nc1ccc(C)cc1C)c1nnc(CCCC(C)(C)C)n1C1CC1 (racemic) [Example F-437] | < 3 | < 3 | – | –
8 | COC(C)(C)CCCc1nnc([C@H]2CN(C(C)=O)C[C@@H]2C(=O)Nc2ccc(C)cc2C)n1C1CC1 (racemic) [Example F-290] | > 3 | > 3 | – | –
9 | CC(=O)N1C[C@H](C(=O)Nc2ccc(C)cc2C)[C@@H](c2nnc(-c3ccc(C(C)C)cc3)n2C2CC2)C1 [Example F-371] | < 3 | < 3 | – | –
10 | Cc1cccc(NC(=O)CCc2nnc(CCCC(C)C)n2C2CC2)c1C [Example F-216] | < 3 | < 3 | – | –
11 | Cc1ccc(NC(=O)C[C@H](CCC(=O)O)c2onc(-c3cc(CC(C)(C)C)on3)c2C2CC2)c(Cl)c1 [Example E-75] | < 3 | < 3 | – | –
12 | CC(C)(C)C[C@H]1C[C@@H](c2onc([C@@H](CCC(=O)O)CC(=O)NC3CCC3)c2C2CC2)C1 [Example F-711] | – | – | > 3 | > 3
13 | CC(=O)N1C[C@H](C(=O)Nc2ccc(C)cc2C)[C@@H](c2nnc(C3CC4(CCCCC4)C3)n2C2CC2)C1 (racemic) [Example F-452] | < 3 | < 3 | – | –
14 | Cc1ccc(NC(=O)CCc2noc(C(F)(F)c3cc(C(C)(C)C)on3)c2C2CC2)c(Cl)c1 [Example F-745] | – | – | < 3 | < 3
15 | Cc1c(Cl)cccc1NC(=O)CCc1nnc(CCn2cccn2)n1C1CC1 [Example F-172] | > 3 | > 3 | – | –
16 | CCn1c(CCC(=O)Nc2cccc(Cl)c2C)nnc1CCC1CCCCC1 [Example F-39] | < 3 | < 3 | – | –
17 | Cc1c(Cl)cccc1NC(=O)CCc1nnc(CCOC(C)(C)C)n1C1CC1 [Example F-163] | < 3 | < 3 | – | –
18 | Cc1ccc(NC(=O)CC(CC#N)c2nnc(CCCC(C)(C)C)n2C2CC2)c(C)c1 (racemic) [Example F-440] | < 3 | < 3 | – | –
19 | Cc1cc(F)ccc1NC(=O)CCc1nnc(CCC(C)C)n1C1CC1 [Example F-137] | < 3 | > 3 | – | –
20 | O=C(CCc1nnc(C2Cc3ccccc3C2)[nH]1)Nc1cccc2ccccc12 [Example F-9] | > 3 | > 3 | – | –
21 | CC(C)CCc1nnc(CCC(=O)NC2CCCCC2C)n1C1CC1 (centres unmarked) [Example F-102] | > 3 | > 3 | – | –
22 | CC(C)CCc1nnc(CCC(=O)Nc2cccc(Cl)c2F)n1C1CC1 [Example F-100] | > 3 | > 3 | – | –
23 | CC1(c2cc(-c3onc([C@@H](CCC(=O)O)CC(=O)Nc4ccc(F)cc4Cl)c3C3CC3)no2)CCCC1 [Example E-72] | < 3 | < 3 | – | –
24 | Cc1ccc(NC(=O)CCc2nnc([C@H]3C[C@@H](CC(C)(C)C)C3)n2C2CC2)c(C)c1 [Example F-426] | < 3 | < 3 | – | –
25 | CCn1c(CCC(=O)Nc2cccc3ccccc23)nnc1CCC(C)(C)C [Example F-25] | < 3 | > 3 | – | –
26 | Cc1ccc(NC(=O)C[C@H](CCC(=O)O)c2noc(-c3cc(C(F)(F)C4(C)CC4)on3)c2C2CC2)c(Cl)c1 [Example E-51] | < 3 | < 3 | – | –

Row | SMILES | EC50 (mouse RORγ; read-out: LUC EC50 (μM) mRORg) [µM] | EC50 (human RORγ; read-out: LUC EC50 (μM) hRORg) [µM] | EC50 (mouse RORγ; read-out: LUC EC50 mRORg) [µM] | EC50 (human RORγ; read-out: LUC EC50 hRORg) [µM]
27 | CCn1c(C(C)CC(=O)Nc2cccc3ccccc23)nnc1C1Cc2ccccc2C1 (racemic) [Example F-33] | < 3 | < 3 | – | –
28 | Cc1ccc(NC(=O)[C@H]2CN(C(=O)C(F)F)C[C@@H]2c2nnc([C@H]3C[C@@H](CC(C)(C)C)C3)n2C2CC2)c(C)c1 [Example F-551] | – | – | < 3 | < 3
29 | CCCC(CC(=O)Nc1cccc(Cl)c1C)c1nnc(CCC(C)C)n1C1CC1 (racemic) [Example F-194] | < 3 | < 3 | – | –
30 | Cc1ccc(NC(=O)CC(Cc2nccs2)c2nnc([C@H]3C[C@@H](CC(C)C)C3)n2C2CC2)c(C)c1 (mixture of isomers) [Example F-439] | < 3 | < 3 | – | –
31 | CC(C)(C)C[C@H]1C[C@@H](c2onc([C@@H](CCC(=O)O)CC(=O)NCC3CCOCC3)c2C2CC2)C1 [Example F-736] | – | – | > 3 | > 3
32 | Cc1ccc(NC(=O)CC(CCC(N)=O)c2nnc(CCCC(C)C)n2C2CC2)c(C)c1 (racemic) [Example F-284] | > 3 | > 3 | – | –
33 | Cc1c(Cl)cccc1NC(=O)CCc1nnc(CCC(C)C)n1C1CC1 [Example F-55] | < 3 | > 3 | – | –
34 | Cc1ccc(NC(=O)CCc2noc([C@H]3C[C@@H](CC(C)(C)C)C3)c2COCC(=O)O)c(Cl)c1 [Example F-704] | – | – | > 3 | > 3
35 | Cc1ccc(NC(=O)C[C@H](CCC(=O)O)c2noc(-c3cc(CC(C)C)on3)c2C2CC2)c(Cl)c1 [Example E-01] | < 3 | < 3 | – | –
36 | Cc1cc(Cl)ccc1NC(=O)CCc1nnc(CCC(C)C)n1C1CC1 [Example F-138] | < 3 | > 3 | – | –
37 | Cc1ccc(NC(=O)C[C@H](CCO)c2nnc(-c3cc(CC(C)C)on3)n2C2CC2)c(C)c1 [Example F-659] | – | – | < 3 | < 3
38 | COc1cc(NC(=O)C[C@H](CCO)c2nnc([C@H]3C[C@@H](CC(C)C)C3)n2C2CC2)ccc1C [Example F-526] | – | – | < 3 | < 3
39 | Cc1ccc(NC(=O)C[C@H](CCC(=O)O)c2noc(-c3noc(CC(C)C)n3)c2C2CC2)c(Cl)c1 [Example E-11] | < 3 | < 3 | – | –
40 | CCn1c(CCC(=O)NCc2cccc(C)c2)nnc1CCC1CCCCC1 [Example F-42] | > 3 | > 3 | – | –
41 | CC(=O)N1C[C@@H](C(=O)Nc2ccc(C)cc2C)[C@H](c2nnc(CCCC(C)C)n2C2CC2)C1 [Example F-316] | > 3 | > 3 | – | –
42 | CC(C)CCc1nnc(CCC(=O)Nc2cc(F)cc(Cl)c2)n1C1CC1 [Example F-109] | > 3 | > 3 | – | –
43 | Cc1ccc(NC(=O)CCc2nnc(CO)n2C2CC2)c(C)c1 [Example F-96] | > 3 | > 3 | – | –
44 | CC(C)(C)Cc1cc(-c2noc([C@@H](CCC(=O)O)CC(=O)Nc3ccc(Cl)cc3F)c2C2CC2)no1 [Example E-76] | < 3 | < 3 | – | –
45 | Cc1ccc(NC(=O)CCc2nnc(COC(C)(C)C)n2C2CC2)c(C)c1 [Example F-97] | > 3 | > 3 | – | –
46 | CCN(CC)CC(=O)N1C[C@H](C(=O)Nc2ccc(C)cc2C)[C@@H](c2nnc([C@H]3C[C@@H](CC(C)C)C3)n2C2CC2)C1 [Example F-654] | – | – | < 3 | > 3
47 | Cc1ccc(NC(=O)C[C@H](CCC(=O)O)c2onc(-c3cc(C(F)(F)C(C)(C)C)on3)c2C2CC2)c(Cl)c1 [Example E-52, Sodium (S)-5-(2-chloro-4-methyl-phenylcarbamoyl)-4-[4-cyclopropyl-5′-(1,1-difluoro-2,2-dimethylpropyl)-[3,3′]biisoxazolyl-5′-yl]pentanoate] | < 3 | < 3 | – | –
48 | CCO[C@@H](CC(=O)Nc1ccc(C)cc1C)c1nnc(-c2cc(CC(C)C)on2)n1C1CC1 [Example F-569] | – | – | < 3 | < 3
49 | CCn1c(C2Cc3ccccc3C2)nnc1[C@H]1C[C@@H]1C(=O)Nc1cccc2ccccc12 (racemic) [Example F-26] | > 3 | > 3 | – | –
50 | Cc1ccc(NC(=O)CCc2nnc(C3(O)CC(CC(C)C)C3)n2C2CC2)c(C)c1 (single isomer, unassigned) [Example F-429] | < 3 | < 3 | – | –
51 | Cc1ccc(NC(=O)C[C@H](CCO)c2nnc(CCCC(C)C)n2C2CC2)c(C)c1 [Example F-314] | < 3 | < 3 | – | –
52 | Cc1cccc(NC(=O)CCc2nnc(CCC(C)C)n2C2CC2)c1 [Example F-65] | > 3 | > 3 | – | –
